Key:
Assay type in all cases: functional, cell-based
PEO1 = experiment: Cytotoxicity against human PEO1 cells measured after 8 days; details: PEO1, 192 h
EL4 = experiment: Cytotoxicity against mouse EL4 cells measured after 8 days; details: EL4, 192 h
T84 = experiment: Cytotoxicity against human T84 cells measured after 8 days; details: T84, 192 h
JIYOYE = experiment: Cytotoxicity against human JIYOYE cells measured after 8 days; details: 192 h
NCI-H417 = experiment: Cytotoxicity against human NCI-H417 cells measured after 8 days; details: NCI-H417, 192 h
Karpas-1106P = experiment: Cytotoxicity against human KARPAS-1106P cells measured after 8 days; details: 192 h
LXFL 529 = experiment: Cytotoxicity against human LXFL 529 cells measured after 8 days; details: LXFL 529, 192 h
[1] = Cytotoxicity against human KR7414 cells measured after 8 days; details: KR7414, 192 h
[2] = Cytotoxicity against human GR-M cells measured after 8 days; details: 192 h
[3] = Cytotoxicity against human SW403 cells measured after 8 days; details: SW-403, 192 h
KM12 = experiment: Cytotoxicity against human KM12 cells measured after 8 days; details: KM12, 192 h
CAL-27 = experiment: Cytotoxicity against human CAL-27 cells measured after 8 days; details: CAL-27, 192 h
MES-SA = experiment: Cytotoxicity against human MES-SA cells measured after 8 days; details: 192 h
WM-115 = experiment: Cytotoxicity against human WM-115 cells measured after 8 days; details: WM-115, 192 h
PANC-03-27 = experiment: Cytotoxicity against human Panc 03.27 cells measured after 8 days; details: PANC-03-27, 192 h
NCI-H2171 = experiment: Cytotoxicity against human NCI-H2171 cells measured after 8 days; details: NCI-H2171, 192 h
A498 = experiment: Cytotoxicity against human A498 cells measured after 8 days; details: A498, 192 h
[4] = Cytotoxicity against human SNU-620 cells measured after 8 days; details: SNU620, 192 h
A20 = experiment: Cytotoxicity against mouse A20 cells measured after 8 days; details: A20, 192 h
[5] = Cytotoxicity against human SNU-484 cells measured after 8 days; details: SNU-484, 192 h
[6] = Cytotoxicity against human HCC1623 cells measured after 8 days; details: HCC1623, 192 h
[7] = Cytotoxicity against human OV56 cells measured after 8 days; details: OV56, 192 h
MKN-74 = experiment: Cytotoxicity against human MKN-74 cells measured after 8 days; details: MKN-74, 192 h
LN-18 = experiment: Cytotoxicity against human LN-18 cells measured after 8 days; details: LN-18, 192 h
[8] = Cytotoxicity against human HCC89 cells measured after 8 days; details: HCC89, 192 h
Detroit 562 = experiment: Cytotoxicity against human Detroit 562 cells measured after 8 days; details: Detroit 562, 192 h
Skut1B = experiment: Cytotoxicity against human Skut1B cells measured after 8 days; details: 192 h
HPAF-II = experiment: Cytotoxicity against human HPAF-II cells measured after 8 days; details: 192 h
SK-MEL-1 = experiment: Cytotoxicity against human SK-MEL-1 cells measured after 8 days; details: SK-MEL-1, 192 h
MCF-10A = experiment: Cytotoxicity against human MCF-10A PTEN-/- cells measured after 8 days; details: 192 h
[9] = Cytotoxicity against human HEC-50B cells measured after 8 days; details: 192 h
EFM-19 = experiment: Cytotoxicity against human EFM-19 cells measured after 8 days; details: EFM-19, 192 h
Panc02 = experiment: Cytotoxicity against mouse Panc02 cells measured after 8 days; details: Panc02, 192 h
KYSE-180 = experiment: Cytotoxicity against human KYSE-180 cells measured after 8 days; details: KYSE-180, 192 h
[10] = Cytotoxicity against human HCC850 cells measured after 8 days; details: HCC850, 192 h
[11] = Cytotoxicity against human HCC597 cells measured after 8 days; details: HCC597, 192 h
[12] = Cytotoxicity against human Li-7 cells measured after 8 days; details: Li-7, 192 h
[13] = Cytotoxicity against human COV318 cells measured after 8 days; details: COV318, 192 h
23132-87 = experiment: Cytotoxicity against human 23132-87 cells measured after 8 days; details: 23132-87, 192 h
[14] = Cytotoxicity against human SUM52PE cells measured after 8 days; details: 192 h
[15] = Cytotoxicity against mouse KLN205 cells measured after 8 days; details: KLN205, 192 h
Capan-2 = experiment: Cytotoxicity against human Capan-2 cells measured after 8 days; details: Capan-2, 192 h
[16] = Cytotoxicity against human 4498-16820 Mel-BR1 X1 cells measured after 8 days; details: 4498-16820 Mel-BR1 X1, 192 h
RVH-421 = experiment: Cytotoxicity against human RVH-421 cells measured after 8 days; details: RVH-421, 192 h
OCI-AML2 = experiment: Cytotoxicity against human OCI-AML2 cells measured after 8 days; details: OCI-AML2, 192 h
[17] = Cytotoxicity against human HCC364 cells measured after 8 days; details: HCC364, 192 h
[18] = Cytotoxicity against mouse AB22 cells measured after 8 days; details: AB22, 192 h
OE19 = experiment: Cytotoxicity against human OE19 cells measured after 8 days; details: OE19, 192 h
BT-474 = experiment: Cytotoxicity against human BT-474 cells measured after 8 days; details: BT-474, 192 h
CCF-STTG1 = experiment: Cytotoxicity against human CCF-STTG1 cells measured after 8 days; details: CCF-STTG1, 192 h
IMR-32 = experiment: Cytotoxicity against human IMR-32 cells measured after 8 days; details: IMR-32, 192 h
[19] = Cytotoxicity against human TYK-nu.CP-r cells measured after 8 days; details: 192 h
SK-N-AS = experiment: Cytotoxicity against human SK-N-AS cells measured after 8 days; details: 192 h
RCM-1 = experiment: Cytotoxicity against human RCM-1 cells measured after 8 days; details: RCM-1, 192 h
PaTu 8988t = experiment: Cytotoxicity against human PaTu 8988t cells measured after 8 days; details: 192 h
HCT-8 = experiment: Cytotoxicity against human HCT-8 cells measured after 8 days; details: HCT-8, 192 h
[20] = Cytotoxicity against mouse LL2 cells measured after 8 days; details: Lewis lung carcinoma, 192 h
OVCAR-4 = experiment: Cytotoxicity against human OVCAR-4 cells measured after 8 days; details: OVCAR-4, 192 h
[21] = Cytotoxicity against human CL-11 cells measured after 8 days; details: CL-11, 192 h
[22] = Cytotoxicity against mouse 4T1-Luc cells measured after 8 days; details: 192 h
MDA-MB-175-VII = experiment: Cytotoxicity against human MDA-MB-175-VII cells measured after 8 days; details: 192 h
ML-2 = experiment: Cytotoxicity against human ML-2 cells measured after 8 days; details: ML-2, 192 h

Measured: IC50

C/C=C/Cn1cc(-c2ccc(C(=O)N3CCOCC3)cc2)c2cc[nH]c2c1=O
8.38 µM: OCI-AML2
7 µM: A20
12.2 µM: Karpas-1106P
2.85 µM: JIYOYE
20 µM: all other assays above

C/C=C/Cn1cc(-c2ccc(C(C)(C)O)cc2OC)c2cc[nH]c2c1=O
8.61 µM: Karpas-1106P
3.43 µM: A20
7.08 µM: MES-SA
14.2 µM: OCI-AML2
13.5 µM: JIYOYE
13.7 µM: LN-18
20 µM: all other assays above
